Data on three molecules can be found in US9994571B2, “10-substituted morphinan hydantoins” (Purdue Pharma L.P., priority 2013, dated 2018).

Like-named read-outs stand apart in the source and are kept apart here.

Assay [1] deals with T1, μ-opioid receptor (Homo sapiens (Human), UniProt P35372). Nature of the assay: μ-opioid receptor radioligand dose-displacement binding assay ([3H]-diprenorphine). To be noted: binding assays using HEK-293 cells; read-out: Opioid Receptor Ki (nM) μ. Here is the method: Radioligand dose-displacement binding assays for μ-opioid receptors used 0.3 nM [^3H]-diprenorphine (Perkin Elmer, Shelton, Conn.), with […] membrane protein/well in a final volume of 500 μl binding buffer (10 mM MgCl2, 1 mM EDTA, 5% DMSO, 50 mM HEPES, pH 7.4). Reactions were carried out in the absence or presence of increasing concentrations of unlabeled naloxone. All reactions were conducted in 96-deep well polypropylene plates for 2 hours at room temperature. Binding reactions were terminated by rapid filtration onto 96-well Unifilter GF/C filter plates (Perkin Elmer, Shelton, Conn.), presoaked in 0.5% polyethylenimine using a 96-well tissue harvester (Perkin Elmer, Shelton, Conn.) followed by performing three filtration washes with 500 μl of ice-cold binding buffer. Filter plates were subsequently dried at 50° C. for 2-3 hours. BetaScint scintillation cocktail (Perkin Elmer, Shelton, Conn.) was added (50 μl/well), and plates were counted using a Packard Top-Count for 1 min/well. The data were analyzed using the one-site competition curve fitting functions in GraphPad PRISM™ v. 3.0 or higher (San Diego, Calif.), or an in-house function for one-site competition curve-fitting.
(§1) In TABLE 1, binding affinity of certain Compounds of the Invention to the μ- and κ-opioid receptors was determined as described above for binding assays using HEK-293 cells.

Assay [2] addresses T2, κ opioid receptor (Homo sapiens (Human), UniProt P41145). Nature of the assay: κ-opioid receptor radioligand dose-displacement binding assay ([3H]-U69,593). The settings on record: binding assays using HEK-293 cells; read-out: Opioid Receptor Ki (nM) κ. Here is the method:
Membranes from HEK-293 cells, CHO or U-2 OS cells expressing the recombinant human κ opioid receptor (κ) were prepared by lysing cells in ice cold hypotonic buffer (2.5 mM MgCl2, 50 mM HEPES, pH 7.4) (10 mL/10 cm dish) followed by homogenization with a tissue grinder/Teflon pestle. Membranes from a cell line naturally expressing kappa opioid receptor can also be used. Membranes were collected by centrifugation at 30,000×g for 15 min at 4° C. and pellets were resuspended in hypotonic buffer to a final concentration of 1-3 mg/mL. Protein concentrations were determined using the BioRad protein assay reagent with bovine serum albumen as standard. Aliquots of K receptor membranes were stored at −80° C.
Radioligand dose displacement assays used 0.4 nM [^3H]-U69,593 (GE Healthcare, Piscataway, N.J.; 40 Ci/mmole) with 15 μg membrane protein (recombinant κ opioid receptor expressed in HEK 293 cells; in-house prep) in a final volume of 200 μl binding buffer (5% DMSO, 50 mM Trizma base, pH 7.4). Non-specific binding was determined in the presence of 10 μM unlabeled naloxone or U69,593. All reactions were performed in 96-well polypropylene plates for 1 hour at a temperature of about 25° C. Binding reactions were terminated by rapid filtration onto 96-well Unifilter GF/C filter plates (Perkin Elmer, Shelton, Conn.) presoaked in 0.5% polyethylenimine (Sigma). Harvesting was performed using a 96-well tissue harvester (Perkin Elmer, Shelton, Conn.) followed by five filtration washes with 200 μl ice-cold binding buffer. Filter plates were subsequently dried at 50° C. for 1-2 hours. Fifty μl/well scintillation cocktail (Perkin Elmer, Shelton, Conn.) was added and plates were counted in a Packard Top-Count for 1 min/well.
as §1

Assay [3] concerns the target T1, μ-opioid receptor. Nature of the assay: μ-opioid receptor [35S]GTPγS functional assay. The class given is biochemical. The protocol:
[^35S]GTPγS functional assays were conducted using freshly thawed μ-receptor membranes prepared in-house from a cell line expressing recombinant μ opioid receptor in a HEK-293, CHO or U-2 OS cell background, or purchased from a commercial source (Perkin Elmer, Shelton, Conn.; or DiscovRx, Fremont, Calif.). Assay reactions were prepared by sequentially adding the following reagents to binding buffer (100 mM NaCl, 10 mM MgCl2, 20 mM HEPES, pH 7.4) on ice (final concentrations indicated): membrane protein (0.026 mg/mL), saponin ([…]), GDP ([…]) and [^35S]GTPγS (0.20 nM; Perkin Elmer, Shelton, Conn.). The prepared membrane solution (190 l/well) was transferred to 96-shallow well polypropylene plates containing 10 μl of 20× concentrated stock solutions of the agonist [D-Ala^2, N-methyl-Phe^4 Gly-ol^5]-enkephalin (DAMGO) prepared in dimethyl sulfoxide (DMSO). Plates were incubated for 30 min at about 25° C. with shaking. Reactions were terminated by rapid filtration onto 96-well Unifilter GF/B filter plates (Perkin Elmer, Shelton, Conn.) using a 96-well tissue harvester (Perkin Elmer, Shelton, Conn.) followed by three filtration washes with 200 μl of ice-cold wash buffer (10 mM NaH2PO4, 10 mM Na2HPO4, pH 7.4). Filter plates were subsequently dried at 50° C. for 2-3 hours. BetaScint scintillation cocktail (Perkin Elmer, Shelton, Conn.) was added (50 μl/well) and plates were counted using a Packard Top-Count for 1 min/well. Data were analyzed using the sigmoidal dose-response curve fitting functions in GraphPad PRISM v. 3.0, or an in-house function for non-linear, sigmoidal dose-response curve-fitting.
μ GTP EC50 is the concentration of a compound providing 50% of the maximal response for the compound at a μ-opioid receptor.
μ GTP Emax (%) is the maximal effect elicited by a compound relative to the effect elicited by DAMGO, a standard μ agonist. Generally, the μ GTP Emax (%) value measures the efficacy of a compound to treat or prevent pain or other Conditions.
(§2) In TABLE 2, activity response of certain Compounds of the Invention to the μ- and κ-opioid receptors was determined as described above for functional assays using U-2 OS cells.
Background: GTPγS is a poorly hydrolysed GTP analogue; its binding reports G protein activation.

In assay [4] the target is T2, κ opioid receptor. Nature of the assay: κ-opioid receptor [35S]GTPγS functional assay. The class given is biochemical. Here is the method: Functional [^35S]GTPγS binding assays were conducted as follows. κ opioid receptor membrane solution was prepared by sequentially adding final concentrations of 0.026 μg/μl κ membrane protein (in-house), 10 μg/mL saponin, 3 μM GDP and 0.20 nM [^35S]GTPγS to binding buffer (100 mM NaCl, 10 mM MgCl2, 20 mM HEPES, pH 7.4) on ice. The prepared membrane solution (190 μl/well) was transferred to 96-shallow well polypropylene plates containing 10 μl of 20× concentrated stock solutions of agonist prepared in DMSO. Plates were incubated for 30 min at a temperature of about 25° C. with shaking. Reactions were terminated by rapid filtration onto 96-well Unifilter GF/B filter plates (Perkin Elmer, Shelton, Conn.) using a 96-well tissue harvester (Packard) and followed by three filtration washes with 200 μl ice-cold binding buffer (10 mM NaH2PO4, 10 mM Na2HPO4, pH 7.4). Filter plates were subsequently dried at 50° C. for 2-3 hours. Fifty μl/well scintillation cocktail (Perkin Elmer, Shelton, Conn.) was added and plates were counted in a Packard Top-Count for 1 min/well.
κ GTP EC50 is the concentration of a compound providing 50% of the maximal response for the compound at a K receptor.
κ GTP Emax (%) is the maximal effect elicited by a compound relative to the effect elicited by U69,593.
as §2

Where [5] appears, read: functional assays using U-2 OS cells, relative to the effect elicited by DAMGO.
Where [6] appears, read: functional assays using U-2 OS cells, relative to the effect elicited by U69,593.

By Ki is commonly meant the dissociation constant of the complex between target and ligand, obtained from inhibition or displacement. The EC50 is the concentration needed to bring the measured effect to its halfway point. By Emax is commonly meant the maximal effect, on the per cent scale that the assay sets. For `O=C1NC(=O)[C@@]2(CC[C@@]3(O)[C@H]4C(=O)c5ccc(O)cc5[C@@]3(CCN4CC3CC3)C2)N1` [Compound 13, (4bR,4′S,8aS,9S)-11-(cyclopropylmethyl)-3,8a-dihydroxy-7,8,8a,9-tetrahydrospiro[9,4b-(epiminoethano)phenanthrene-6,4′-imidazolidine]-2′,5′,10(5H)-trione], the Ki in assay [1] amounted to 472 ± 40.8 nM; in assay [2] it was 12.2 ± 0.61 nM. Moreover, the half-maximal effective concentration (EC50) in assay [3] amounted to 37.5 ± 6.18 nM; in assay [4] it was 8.79 ± 1.26 nM. The Emax in assay [3] (setting [5]) turned out to be 61.3 ± 5.78%; in assay [4] (setting [6]) it was 106 ± 2.52%.

On to `CN1CC[C@]23C[C@]4(CC[C@@]2(O)[C@H]1[C@H](O)c1ccc(O)cc13)NC(=O)NC4=O` [Compound 17, (4bR,4′S,8aS,9R,10R)-3,8a,10-trihydroxy-11-methyl-5,7,8,8a,9,10-hexahydrospiro[9,4b-(epiminoethano)phenanthrene-6,4′-imidazolidine]-2′,5′-dione], for which the EC50 in assay [3] came to 116 ± 23 nM; in assay [4], 5780 ± 1100 nM. The maximal response (Emax) in assay [3] (setting [5]) turned out to be 98.8 ± 0.97%; in assay [4] (setting [6]), 107 ± 1.53%.

As to “(4bR,4′S,8aS,9S,10R)-11-(cyclopropylmethyl)-10-fluoro-8a-hydroxy-3-methoxy-5,7,8,8a,9,10-tetrahydrospiro [9,4b-(epiminoethano)phenanthrene-6,4′-imidazolidine]-2′,5′-dione [Compound 18]”, the EC50 in assay [3] (functional assays using U-2 OS cells, read-out: Opioid Receptor μ EC50) was 1550 ± 184 nM; in assay [4] (functional assays using U-2 OS cells, read-out: Opioid Receptor κ EC50), 1480 ± 125 nM. In addition, in assay [3] (setting [5]), the “Opioid Receptor μ Emax (%)” value is 14.7 ± 0.33%. The “Opioid Receptor κ Emax (%)” value in assay [4] (setting [6]) is 81.7 ± 0.88%.
